Common to all, as to type: in vivo, Drosophila melanogaster
The subject of test [1] is Aβ. Briefly: Western blot, Aβ in heads of elav < APP/BACE-1 flies. The note with it: 20-day-old males. The protocol: (§1) The elav < APP/BACE-1 flies were cultured from the egg stage, as described previously. The lysates were obtained from the heads of 50 male flies (20 days old) by placing the heads in 100 μL RIPA buffer (pH 8.0) containing a 1% protease inhibitor cocktail. The controls received 0.1% DMSO. The lysates were centrifuged at 14,000 rpm for 30 min at 4 °C. The protein content of the supernatant was determined using a Bradford Protein Assay kit (Sigma-Aldrich) and BSA was used as the standard. The total proteins (30 μg/sample for APP and BACE-1 detection; 70 μg/sample for Aβ detection) were mixed with an equal volume of 5× sample buffer[81] containing 40 mM of DL-dithiothreitol, boiled for 10 min, and then loaded onto 8, 10, and 12% sodium dodecyl sulfate-polyacrylamide gels using a Mini-Protean 3 electrophoresis cell (Bio-Rad, Hercules, CA, USA) for APP, APP-CTF (APP-αCTF and APP-βCTF) and AICD, BACE-1, and Aβ detection, respectively. After electrophoresis at 110 V in 2 h, the proteins from the gels were transferred onto a polyvinyl difluoride membrane (Pall Corporation, Pensacola, FL, USA) using an electroblotting apparatus. The membrane was then blocked with 5% skim milk (BD Difco, Flanklin Lakes, NJ, USA) in PBS containing 0.1% (v/v) Tween-20 (0.1% PBS-T) at room temperature for 1 h, and further incubated overnight at 4 °C with a 1:4,000 dilution of an anti-APP C-terminal antibody to detect the cleaved APP product, a 1:1,000 dilution of anti-BACE-1, and a 1:1,000 dilution of anti-amyloid (4G8). After washing with 0.1% PBS-T three times at 10 min intervals, the membranes were further incubated for 2 h with a goat anti-rabbit IgG H&L (HRP) secondary antibody at a1:4,000 dilution for APP and BACE-1 and a goat anti-mouse lgG-HRP at a 1:5,000 dilution for β-amyloid. […] The differences in protein expression were quantified using a Molecular Imager Gel Doc XR system (Bio-Rad, Hercules, CA, USA) and normalized to actin expression on the same membrane. The results are expressed as the means ± SEs of duplicate samples from three independent experiments.

Test [2] relates to human APP. Briefly: Western blot, APP protein in heads of elav < APP/BACE-1 flies. The following applies: 20-day-old males. As to the method:
as §1
For orientation: In western blotting, separated proteins are transferred to a membrane and probed.

Test [3] concerns APP intracellular domain (AICD). The test is described as follows: Western blot, AICD in heads of elav < APP/BACE-1 flies. The following applies: 20-day-old males. The protocol: as §1
Test [4] deals with APP-CTF. The test is described as follows: Western blot, APP-CTF in heads of elav < APP/BACE-1 flies. The following applies: 100, 300, and 500 μM; 20-day-old males. As to the method:
The elav < APP/BACE-1 flies were cultured from the egg stage, as described previously. The lysates were obtained from the heads of 50 male flies (20 days old) by placing the heads in 100 μL RIPA buffer (pH 8.0) containing a 1% protease inhibitor cocktail. The controls received 0.1% DMSO. The lysates were centrifuged at 14,000 rpm for 30 min at 4 °C. The protein content of the supernatant was determined using a Bradford Protein Assay kit (Sigma-Aldrich) and BSA was used as the standard. The total proteins (30 μg/sample for APP and BACE-1 detection; 70 μg/sample for Aβ detection) were mixed with an equal volume of 5× sample buffer[81] containing 40 mM of DL-dithiothreitol, boiled for 10 min, and then loaded onto 8, 10, and 12% sodium dodecyl sulfate-polyacrylamide gels using a Mini-Protean 3 electrophoresis cell (Bio-Rad, Hercules, CA, USA) for APP, APP-CTF (APP-αCTF and APP-βCTF) and AICD, BACE-1, and Aβ detection, respectively. […] The differences in protein expression were quantified using a Molecular Imager Gel Doc XR system (Bio-Rad, Hercules, CA, USA) and normalized to actin expression on the same membrane. The results are expressed as the means ± SEs of duplicate samples from three independent experiments.

The structures appear in SMILES notation.

On to `COc1ccc(-c2cc(=O)c3c(O)cc(O)cc3o2)cc1` [acacetin], for which the “Aβ levels, % of the controls” value is 71% in test [1] (100 μM), 72% in test [1] (300 μM) and 47% in test [1] (500 μM). Moreover, the “APP levels, % of the control levels” value came to 86% in test [2] (100 μM, not significantly different from control); 70% in test [2] (300 μM); 69% in test [2] (500 μM). Moreover, the figures for the “AICD levels, % of the control levels” value in test [3] (100 μM), in test [3] (300 μM) and in test [3] (500 μM) were 68%, 27% and 37%, respectively. For the same compound, the “APP-CTF, % of the control levels” value in test [4] is recorded as “approximately 80%”.
